From article PMC9410468 (Marine Drugs, 2022)
pIC50: −log10 of the molar value.

Tests used:
rα3β4 nAChR = rα3β4 nAChR (Rattus norvegicus, UniProt P04757+P12392); assay type: cell-based
α3β4 nAChR = conditions: cited from earlier work
[1] = in vivo; cited from earlier work
rα6/α3β4 nAChR = assay type: cell-based, rat
RAW264.7 cells [2] = assay type: cell-based, mouse
RAW264.7 cells [3] = assay type: cell-based, mouse; remark: listed apart in the source

Sequence of rα3β4 nAChR (P04757 26-499 limits assumed): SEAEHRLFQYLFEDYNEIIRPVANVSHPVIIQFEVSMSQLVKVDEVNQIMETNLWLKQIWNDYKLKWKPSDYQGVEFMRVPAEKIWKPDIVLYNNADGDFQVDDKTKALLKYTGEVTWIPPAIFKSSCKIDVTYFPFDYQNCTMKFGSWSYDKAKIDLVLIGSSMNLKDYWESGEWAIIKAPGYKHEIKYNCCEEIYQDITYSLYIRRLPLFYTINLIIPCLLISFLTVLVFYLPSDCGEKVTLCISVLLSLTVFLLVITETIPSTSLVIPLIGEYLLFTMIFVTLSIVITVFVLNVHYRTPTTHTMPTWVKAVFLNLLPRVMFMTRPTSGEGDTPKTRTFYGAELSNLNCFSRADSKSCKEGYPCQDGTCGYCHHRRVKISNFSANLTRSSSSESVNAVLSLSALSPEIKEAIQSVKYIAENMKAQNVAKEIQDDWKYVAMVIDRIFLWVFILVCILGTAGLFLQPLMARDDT
Sequence of rα3β4 nAChR (P12392 21-495 limits assumed): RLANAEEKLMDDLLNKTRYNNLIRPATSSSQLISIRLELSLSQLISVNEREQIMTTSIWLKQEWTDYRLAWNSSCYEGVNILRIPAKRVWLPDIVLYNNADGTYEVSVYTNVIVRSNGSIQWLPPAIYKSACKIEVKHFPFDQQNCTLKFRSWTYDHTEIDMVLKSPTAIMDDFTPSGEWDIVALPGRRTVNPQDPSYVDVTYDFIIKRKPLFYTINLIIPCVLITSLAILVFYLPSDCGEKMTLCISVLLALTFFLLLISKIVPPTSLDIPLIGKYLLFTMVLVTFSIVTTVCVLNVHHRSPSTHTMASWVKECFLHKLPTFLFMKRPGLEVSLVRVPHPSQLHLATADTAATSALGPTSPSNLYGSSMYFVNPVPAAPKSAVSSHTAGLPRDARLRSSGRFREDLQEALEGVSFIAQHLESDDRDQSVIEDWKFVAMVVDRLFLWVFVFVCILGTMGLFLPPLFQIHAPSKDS

Row | Compound | Hill Slope (rα3β4 nAChR) | pIC50 (α3β4 nAChR) | anti-nicotine addiction effect (in words) [1] | change of IC50 compared with WT TxID (rα3β4 nAChR) | inhibitory activity at rα3β4 (in words) (rα3β4 nAChR) | potency at α3β4 compared with native TxID (in words) (rα3β4 nAChR) | inhibitory activity at rα6/α3β4 (in words) (rα6/α3β4 nAChR) | fluorescence intensity, flow cytometry (in words) (RAW264.7 cells [2]) | red fluorescence labelling of cells (in words) (RAW264.7 cells [3])
1 | CC[C@H](C)[C@@H]1NC(=O)[C@@H]2CCCN2C(=O)[C@H](CO)NC(=O)[C@H](CCSC)NC(=O)[C@H](C)NC(=O)[C@H](CO)NC(=O)[C@@H]2CSSC[C@H](NC(=O)CN)C(=O)N[C@@H](CSSC[C@@H](C(N)=O)NC1=O)C(=O)N[C@@H](CO)C(=O)N[C@@H](Cc1c[nH]cn1)C(=O)N1CCC[C@H]1C(=O)N[C@@H](C(C)C)C(=O)N2 [TxID] | 0.6 (0.5–0.7) | […] | anti-nicotine addiction effect |  |  |  |  |  | 
2 | CC[C@H](C)[C@@H]1NC(=O)[C@@H]2CCCN2C(=O)[C@H](CO)NC(=O)[C@H](CCSC)NC(=O)[C@H](C)NC(=O)[C@H](CO)NC(=O)[C@@H]2CSSC[C@H](NC(=O)CNC(=O)c3ccc(-c4c5ccc(=[N+](C)C)cc-5oc5cc(N(C)C)ccc45)c(C(=O)[O-])c3)C(=O)N[C@@H](CSSC[C@@H](C(N)=O)NC1=O)C(=O)N[C@@H](CO)C(=O)N[C@@H](Cc1c[nH]cn1)C(=O)N1CCC[C@H]1C(=O)N[C@@H](C(C)C)C(=O)N2 [TxID-F] | 0.8 (0.7–0.9) |  |  | 3 fold | most inhibitory activity | maintained the same order of potency | followed with the rα6/α3β4 subtype | strong fluorescence intensity | red fluorescence signal was observed on the RAW264.7 cells
